Results taken from ChEMBL document CHEMBL2440009, “Discovery of GSK2656157: An Optimized PERK Inhibitor Selected for Preclinical Development” (ACS Med Chem Lett, 2013).
pIC50: −log10 of the molar value.

Columns and labels:
[1] = target: T1, Eukaryotic translation initiation factor 2-alpha kinase 3 (Homo sapiens, UniProt Q9NZJ5); test: Inhibition of GST-tagged PERK cytoplasmic domain (536 to 1116) (unknown origin) assessed as biotinylated His6-tagged EIF2alpha phosphorylation preincubated for 30 mins followed by ATP and eIF2alpha addition measured after 1 hr by HTRF assay
T1 sequence (Q9NZJ5 whole entry): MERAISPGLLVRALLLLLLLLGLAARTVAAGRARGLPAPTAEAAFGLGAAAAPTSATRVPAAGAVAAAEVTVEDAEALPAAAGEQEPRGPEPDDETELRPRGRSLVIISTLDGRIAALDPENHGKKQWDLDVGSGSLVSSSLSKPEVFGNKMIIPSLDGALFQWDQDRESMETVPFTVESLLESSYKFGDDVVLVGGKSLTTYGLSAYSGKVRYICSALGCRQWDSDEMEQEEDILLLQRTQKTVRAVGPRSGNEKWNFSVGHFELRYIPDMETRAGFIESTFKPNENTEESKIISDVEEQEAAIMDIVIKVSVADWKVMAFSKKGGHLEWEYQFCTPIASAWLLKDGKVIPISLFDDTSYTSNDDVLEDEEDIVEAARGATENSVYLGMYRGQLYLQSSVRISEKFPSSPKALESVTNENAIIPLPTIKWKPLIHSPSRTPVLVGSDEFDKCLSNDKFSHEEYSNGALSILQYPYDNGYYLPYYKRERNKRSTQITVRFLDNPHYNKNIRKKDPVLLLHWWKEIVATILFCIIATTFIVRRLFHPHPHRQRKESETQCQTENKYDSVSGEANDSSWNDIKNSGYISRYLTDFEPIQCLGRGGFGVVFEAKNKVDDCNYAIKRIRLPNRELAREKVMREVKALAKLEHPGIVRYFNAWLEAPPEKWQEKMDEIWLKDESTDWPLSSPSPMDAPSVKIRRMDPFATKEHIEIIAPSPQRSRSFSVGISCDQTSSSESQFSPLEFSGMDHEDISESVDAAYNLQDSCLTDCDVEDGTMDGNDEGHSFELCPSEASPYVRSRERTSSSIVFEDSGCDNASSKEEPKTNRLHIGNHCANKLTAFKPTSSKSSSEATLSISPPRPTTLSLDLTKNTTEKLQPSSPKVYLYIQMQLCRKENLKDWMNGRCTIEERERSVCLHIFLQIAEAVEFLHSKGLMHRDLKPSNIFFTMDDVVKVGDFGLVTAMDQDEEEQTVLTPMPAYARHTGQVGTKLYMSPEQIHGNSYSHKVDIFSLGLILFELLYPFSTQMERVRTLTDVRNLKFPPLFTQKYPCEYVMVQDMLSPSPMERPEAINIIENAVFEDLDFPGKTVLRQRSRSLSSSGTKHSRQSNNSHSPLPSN

[2] = target: eIF-2-alpha kinase GCN2 (Homo sapiens, UniProt Q9P2K8); test: Inhibition of GCN2 (unknown origin) assessed as EIF2AK4 phosphorylation
[3] = target: Interferon-induced, double-stranded RNA-activated protein kinase (Homo sapiens, UniProt P19525); test: Inhibition of PKR (unknown origin) assessed as EIF2AK2 phosphorylation
[4] = target: Eukaryotic translation initiation factor 2-alpha kinase 1 (Homo sapiens, UniProt Q9BQI3); test: Inhibition of HRI (unknown origin) assessed as EIF2AK1 phosphorylation
[5] = target: T2, Cytochrome P450 3A4 (Homo sapiens, UniProt P08684); test: Inhibition of CYP3A4 in human liver microsomes using nifedipine as substrate after 5 to 60 mins by LC-MS/MS analysis; format: ADME, Microsome
[6] = target: T3, Cytochrome P450 2C8 (Homo sapiens, UniProt P10632); test: Inhibition of CYP2C8 in human liver microsomes using paclitaxel as substrate after 5 to 60 mins by LC-MS/MS analysis; format: ADME, Microsome
T3 sequence (P10632 whole entry): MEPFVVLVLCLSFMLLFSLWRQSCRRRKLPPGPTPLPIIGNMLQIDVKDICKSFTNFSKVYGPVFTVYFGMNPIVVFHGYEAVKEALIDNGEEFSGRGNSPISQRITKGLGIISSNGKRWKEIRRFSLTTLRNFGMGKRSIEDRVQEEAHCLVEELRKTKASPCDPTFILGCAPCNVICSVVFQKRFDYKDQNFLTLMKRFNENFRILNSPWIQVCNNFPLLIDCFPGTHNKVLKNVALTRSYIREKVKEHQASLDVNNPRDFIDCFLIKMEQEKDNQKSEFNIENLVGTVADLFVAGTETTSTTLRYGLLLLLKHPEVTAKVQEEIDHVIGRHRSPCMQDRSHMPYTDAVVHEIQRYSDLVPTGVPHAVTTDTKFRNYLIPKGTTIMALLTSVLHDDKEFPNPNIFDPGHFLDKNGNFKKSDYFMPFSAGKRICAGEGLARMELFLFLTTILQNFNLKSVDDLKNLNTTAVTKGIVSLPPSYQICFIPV

[7] = target: T2, Cytochrome P450 3A4; test: Inhibition of CYP3A4 in human liver microsomes using midazolam as substrate after 5 to 60 mins by LC-MS/MS analysis; format: ADME, Microsome
[8] = target: T4, Cytochrome P450 2D6 (Homo sapiens, UniProt P10635); test: Inhibition of CYP2D6 in human liver microsomes using bufuralol as substrate after 5 to 60 mins by LC-MS/MS analysis; format: ADME, Microsome
[9] = target: Cytochrome P450 2C19 (Homo sapiens, UniProt P33261); test: Inhibition of CYP2C19 in human liver microsomes using mephenytoin as substrate after 5 to 60 mins by LC-MS/MS analysis; format: ADME, Microsome
[10] = target: Cytochrome P450 2C9 (Homo sapiens, UniProt P11712); test: Inhibition of CYP2C9 in human liver microsomes using diclofenac as substrate after 5 to 60 mins by LC-MS/MS analysis; format: ADME, Microsome
[11] = target: T5, Cytochrome P450 1A2 (Homo sapiens, UniProt P05177); test: Inhibition of CYP1A2 in human liver microsomes using phenacetin as substrate after 5 to 60 mins by LC-MS/MS analysis; format: ADME, Microsome
T5 sequence (P05177 whole entry): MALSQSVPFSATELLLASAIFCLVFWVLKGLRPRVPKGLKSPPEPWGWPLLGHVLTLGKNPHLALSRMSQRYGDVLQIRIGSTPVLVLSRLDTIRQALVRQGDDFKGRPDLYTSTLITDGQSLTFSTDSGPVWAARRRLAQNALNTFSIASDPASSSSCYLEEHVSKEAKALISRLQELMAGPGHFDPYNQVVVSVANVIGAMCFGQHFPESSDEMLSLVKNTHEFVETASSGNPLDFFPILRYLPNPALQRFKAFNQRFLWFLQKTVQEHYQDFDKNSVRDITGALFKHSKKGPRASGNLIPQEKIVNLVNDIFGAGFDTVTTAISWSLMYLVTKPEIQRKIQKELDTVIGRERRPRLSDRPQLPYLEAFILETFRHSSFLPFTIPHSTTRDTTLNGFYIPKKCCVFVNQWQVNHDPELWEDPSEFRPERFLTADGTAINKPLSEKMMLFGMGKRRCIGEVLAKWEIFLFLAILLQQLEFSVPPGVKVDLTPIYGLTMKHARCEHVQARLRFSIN

[12] = Blood clearance in Sprague-Dawley rat at 2.2 mg/kg, iv by LC-MS/MS analysis; format: ADME, organism-based; parameters: dose 2.2 mg/kg, route intravenous; conditions: whole blood
[13] = target: T1, Eukaryotic translation initiation factor 2-alpha kinase 3; test: Inhibition of thapsigargin-induced autophosphorylation of PERK in human A549 cells preincubated for 1 hr followed by thapsigargin-induction measured after 1 hr by Western blotting analysis; format: cell-based
[14] = target: T4, Cytochrome P450 2D6; test: Inhibition of CYP2D6 in human liver microsomes using dextromethorphan as substrate after 5 to 60 mins by LC-MS/MS analysis; format: ADME, Microsome
[15] = Oral bioavailability in beagle dog at 5.2 mg/kg by LC-MS/MS analysis; format: ADME, organism-based, Canis lupus familiaris; conditions: in vivo
[16] = Oral bioavailability in Sprague-Dawley rat at 4.3 mg/kg by LC-MS/MS analysis; format: ADME, organism-based; conditions: in vivo
[17] = Oral bioavailability in CD1 mouse at 13.4 mg/kg by LC-MS/MS analysis; format: ADME, organism-based; conditions: in vivo
[18] = AUC (0 to infinity) in beagle dog at 5.2 mg/kg, po by LC-MS/MS analysis; format: ADME, organism-based, Canis lupus familiaris; parameters: time infinity, dose 5.2 mg/kg, route oral; conditions: plasma
[19] = AUC (0 to infinity) in Sprague-Dawley rat at 4.3 mg/kg, po by LC-MS/MS analysis; format: ADME, organism-based; parameters: time infinity, dose 4.3 mg/kg, route oral; conditions: plasma
[20] = AUC (0 to infinity) in CD1 mouse at 13.4 mg/kg, po by LC-MS/MS analysis; format: ADME, organism-based; parameters: time infinity, dose 13.4 mg/kg, route oral; conditions: plasma
[21] = Half life in beagle dog at 2.9 mg/kg, iv by LC-MS/MS analysis; format: ADME, organism-based, Canis lupus familiaris; parameters: dose 2.9 mg/kg, route intravenous; conditions: in vivo
[22] = Half life in Sprague-Dawley rat at 2.2 mg/kg, iv by LC-MS/MS analysis; format: ADME, organism-based; parameters: dose 2.2 mg/kg, route intravenous; conditions: in vivo
[23] = Half life in CD1 mouse at 2 mg/kg, iv by LC-MS/MS analysis; format: ADME, organism-based; parameters: dose 2 mg/kg, route intravenous; conditions: in vivo
[24] = Volume of distribution at steady state in beagle dog at 2.9 mg/kg, iv by LC-MS/MS analysis; format: ADME, organism-based, Canis lupus familiaris; parameters: dose 2.9 mg/kg, route intravenous; conditions: in vivo, read-out: Vdss
[25] = Volume of distribution at steady state in Sprague-Dawley rat at 2.2 mg/kg, iv by LC-MS/MS analysis; format: ADME, organism-based; parameters: dose 2.2 mg/kg, route intravenous; conditions: in vivo, read-out: Vdss
[26] = Volume of distribution at steady state in CD1 mouse at 2 mg/kg, iv by LC-MS/MS analysis; format: ADME, organism-based; parameters: dose 2 mg/kg, route intravenous; conditions: in vivo, read-out: Vdss
[27] = Blood clearance in beagle dog at 2.9 mg/kg, iv by LC-MS/MS analysis; format: ADME, organism-based, Canis lupus familiaris; parameters: dose 2.9 mg/kg, route intravenous; conditions: whole blood
[28] = Blood clearance in CD1 mouse at 2 mg/kg, iv by LC-MS/MS analysis; format: ADME, organism-based; parameters: dose 2 mg/kg, route intravenous; conditions: whole blood
[29] = AUC (0 to infinity) in beagle dog at 2.9 mg/kg, iv by LC-MS/MS analysis; format: ADME, organism-based, Canis lupus familiaris; parameters: time infinity, dose 2.9 mg/kg, route intravenous; conditions: plasma
[30] = AUC (0 to infinity) in Sprague-Dawley rat at 2.2 mg/kg, iv by LC-MS/MS analysis; format: ADME, organism-based; parameters: time infinity, dose 2.2 mg/kg, route intravenous; conditions: plasma
[31] = AUC (0 to infinity) in CD1 mouse at 2 mg/kg, iv by LC-MS/MS analysis; format: ADME, organism-based; parameters: time infinity, dose 2 mg/kg, route intravenous; conditions: plasma

T4 sequence (P10635 whole entry): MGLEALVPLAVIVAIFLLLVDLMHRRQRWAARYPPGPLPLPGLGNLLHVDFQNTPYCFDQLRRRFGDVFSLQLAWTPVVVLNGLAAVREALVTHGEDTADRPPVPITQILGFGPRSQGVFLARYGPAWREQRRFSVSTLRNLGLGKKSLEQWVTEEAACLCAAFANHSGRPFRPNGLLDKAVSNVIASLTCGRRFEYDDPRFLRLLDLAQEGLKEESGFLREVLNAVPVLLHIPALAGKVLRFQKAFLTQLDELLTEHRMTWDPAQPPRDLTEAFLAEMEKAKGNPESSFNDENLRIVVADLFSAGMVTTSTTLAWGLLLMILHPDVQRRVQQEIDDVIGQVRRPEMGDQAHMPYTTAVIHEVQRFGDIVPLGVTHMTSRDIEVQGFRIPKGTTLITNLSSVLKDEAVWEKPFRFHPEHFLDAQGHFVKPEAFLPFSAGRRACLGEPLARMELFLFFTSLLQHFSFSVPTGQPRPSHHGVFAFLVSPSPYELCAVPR
Chain of Cytochrome P450 2C9 (P11712 whole entry): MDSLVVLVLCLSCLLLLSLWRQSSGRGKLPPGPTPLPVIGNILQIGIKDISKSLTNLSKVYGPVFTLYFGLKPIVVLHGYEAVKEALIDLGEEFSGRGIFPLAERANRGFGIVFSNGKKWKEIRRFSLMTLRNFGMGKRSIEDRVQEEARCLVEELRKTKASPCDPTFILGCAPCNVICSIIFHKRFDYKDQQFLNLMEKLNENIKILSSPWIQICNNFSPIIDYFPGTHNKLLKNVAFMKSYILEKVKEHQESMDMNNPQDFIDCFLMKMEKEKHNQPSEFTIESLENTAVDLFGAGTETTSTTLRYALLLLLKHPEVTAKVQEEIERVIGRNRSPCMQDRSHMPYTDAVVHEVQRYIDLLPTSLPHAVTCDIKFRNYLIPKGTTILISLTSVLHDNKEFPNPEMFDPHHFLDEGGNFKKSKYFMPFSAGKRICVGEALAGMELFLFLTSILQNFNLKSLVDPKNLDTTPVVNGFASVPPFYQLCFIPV
Chain of Cytochrome P450 2C19 (P33261 whole entry): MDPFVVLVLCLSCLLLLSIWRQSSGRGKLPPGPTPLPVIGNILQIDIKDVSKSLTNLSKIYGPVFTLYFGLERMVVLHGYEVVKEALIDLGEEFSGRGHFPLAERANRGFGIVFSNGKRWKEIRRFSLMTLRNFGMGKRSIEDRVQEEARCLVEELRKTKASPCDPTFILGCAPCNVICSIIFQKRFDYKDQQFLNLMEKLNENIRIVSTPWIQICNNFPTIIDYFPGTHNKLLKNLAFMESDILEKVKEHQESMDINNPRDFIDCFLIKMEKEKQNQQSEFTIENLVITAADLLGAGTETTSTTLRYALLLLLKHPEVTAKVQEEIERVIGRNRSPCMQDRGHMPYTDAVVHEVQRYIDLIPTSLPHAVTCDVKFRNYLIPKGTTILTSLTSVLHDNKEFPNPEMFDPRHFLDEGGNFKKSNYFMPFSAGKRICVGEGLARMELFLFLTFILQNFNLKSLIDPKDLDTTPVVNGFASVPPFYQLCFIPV
Chain of Eukaryotic translation initiation factor 2-alpha kinase 1 (Q9BQI3 whole entry): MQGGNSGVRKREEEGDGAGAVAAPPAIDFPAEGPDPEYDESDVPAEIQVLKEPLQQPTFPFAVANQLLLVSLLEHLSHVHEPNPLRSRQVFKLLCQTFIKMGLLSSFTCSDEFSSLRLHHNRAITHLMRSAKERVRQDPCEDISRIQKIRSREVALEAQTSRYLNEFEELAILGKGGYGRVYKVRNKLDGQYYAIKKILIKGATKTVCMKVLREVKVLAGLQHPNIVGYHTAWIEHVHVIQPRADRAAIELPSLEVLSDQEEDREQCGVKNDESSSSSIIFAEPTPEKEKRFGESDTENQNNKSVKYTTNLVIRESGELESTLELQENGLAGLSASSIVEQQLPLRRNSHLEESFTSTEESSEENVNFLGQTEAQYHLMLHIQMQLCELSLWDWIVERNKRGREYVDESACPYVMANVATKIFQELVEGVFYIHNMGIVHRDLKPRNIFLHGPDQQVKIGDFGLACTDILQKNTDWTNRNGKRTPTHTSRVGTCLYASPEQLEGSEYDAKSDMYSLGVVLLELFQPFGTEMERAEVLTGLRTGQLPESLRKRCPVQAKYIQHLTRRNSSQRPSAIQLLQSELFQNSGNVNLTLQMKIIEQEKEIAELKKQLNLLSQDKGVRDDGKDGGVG
Chain of Interferon-induced, double-stranded RNA-activated protein kinase (P19525 whole entry): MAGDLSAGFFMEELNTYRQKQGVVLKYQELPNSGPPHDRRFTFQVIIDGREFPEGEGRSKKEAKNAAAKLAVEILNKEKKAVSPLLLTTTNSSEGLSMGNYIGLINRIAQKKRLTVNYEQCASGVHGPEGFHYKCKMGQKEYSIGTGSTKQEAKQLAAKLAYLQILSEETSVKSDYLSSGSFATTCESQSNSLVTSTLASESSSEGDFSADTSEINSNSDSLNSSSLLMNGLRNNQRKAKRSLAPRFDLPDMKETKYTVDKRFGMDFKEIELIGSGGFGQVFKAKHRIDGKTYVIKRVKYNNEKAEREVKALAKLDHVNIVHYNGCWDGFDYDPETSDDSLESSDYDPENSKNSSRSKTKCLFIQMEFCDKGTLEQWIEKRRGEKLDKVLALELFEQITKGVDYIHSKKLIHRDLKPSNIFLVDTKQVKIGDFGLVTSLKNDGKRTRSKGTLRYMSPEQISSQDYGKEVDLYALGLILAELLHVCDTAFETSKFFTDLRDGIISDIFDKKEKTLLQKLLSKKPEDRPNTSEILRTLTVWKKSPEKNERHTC
T2 sequence (P08684 whole entry): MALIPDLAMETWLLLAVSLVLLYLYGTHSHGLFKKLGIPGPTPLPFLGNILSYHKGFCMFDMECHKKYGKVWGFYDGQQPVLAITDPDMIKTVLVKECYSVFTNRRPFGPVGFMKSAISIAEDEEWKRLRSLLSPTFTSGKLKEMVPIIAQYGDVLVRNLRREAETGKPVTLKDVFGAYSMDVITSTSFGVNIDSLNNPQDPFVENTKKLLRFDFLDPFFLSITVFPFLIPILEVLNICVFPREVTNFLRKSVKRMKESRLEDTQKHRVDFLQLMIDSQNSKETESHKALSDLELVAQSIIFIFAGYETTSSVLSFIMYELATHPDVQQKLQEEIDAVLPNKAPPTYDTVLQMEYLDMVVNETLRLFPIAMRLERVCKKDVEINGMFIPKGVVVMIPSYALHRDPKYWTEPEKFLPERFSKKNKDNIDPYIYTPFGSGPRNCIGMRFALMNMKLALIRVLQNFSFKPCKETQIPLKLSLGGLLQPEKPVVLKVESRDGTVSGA
Chain of eIF-2-alpha kinase GCN2 (Q9P2K8 whole entry): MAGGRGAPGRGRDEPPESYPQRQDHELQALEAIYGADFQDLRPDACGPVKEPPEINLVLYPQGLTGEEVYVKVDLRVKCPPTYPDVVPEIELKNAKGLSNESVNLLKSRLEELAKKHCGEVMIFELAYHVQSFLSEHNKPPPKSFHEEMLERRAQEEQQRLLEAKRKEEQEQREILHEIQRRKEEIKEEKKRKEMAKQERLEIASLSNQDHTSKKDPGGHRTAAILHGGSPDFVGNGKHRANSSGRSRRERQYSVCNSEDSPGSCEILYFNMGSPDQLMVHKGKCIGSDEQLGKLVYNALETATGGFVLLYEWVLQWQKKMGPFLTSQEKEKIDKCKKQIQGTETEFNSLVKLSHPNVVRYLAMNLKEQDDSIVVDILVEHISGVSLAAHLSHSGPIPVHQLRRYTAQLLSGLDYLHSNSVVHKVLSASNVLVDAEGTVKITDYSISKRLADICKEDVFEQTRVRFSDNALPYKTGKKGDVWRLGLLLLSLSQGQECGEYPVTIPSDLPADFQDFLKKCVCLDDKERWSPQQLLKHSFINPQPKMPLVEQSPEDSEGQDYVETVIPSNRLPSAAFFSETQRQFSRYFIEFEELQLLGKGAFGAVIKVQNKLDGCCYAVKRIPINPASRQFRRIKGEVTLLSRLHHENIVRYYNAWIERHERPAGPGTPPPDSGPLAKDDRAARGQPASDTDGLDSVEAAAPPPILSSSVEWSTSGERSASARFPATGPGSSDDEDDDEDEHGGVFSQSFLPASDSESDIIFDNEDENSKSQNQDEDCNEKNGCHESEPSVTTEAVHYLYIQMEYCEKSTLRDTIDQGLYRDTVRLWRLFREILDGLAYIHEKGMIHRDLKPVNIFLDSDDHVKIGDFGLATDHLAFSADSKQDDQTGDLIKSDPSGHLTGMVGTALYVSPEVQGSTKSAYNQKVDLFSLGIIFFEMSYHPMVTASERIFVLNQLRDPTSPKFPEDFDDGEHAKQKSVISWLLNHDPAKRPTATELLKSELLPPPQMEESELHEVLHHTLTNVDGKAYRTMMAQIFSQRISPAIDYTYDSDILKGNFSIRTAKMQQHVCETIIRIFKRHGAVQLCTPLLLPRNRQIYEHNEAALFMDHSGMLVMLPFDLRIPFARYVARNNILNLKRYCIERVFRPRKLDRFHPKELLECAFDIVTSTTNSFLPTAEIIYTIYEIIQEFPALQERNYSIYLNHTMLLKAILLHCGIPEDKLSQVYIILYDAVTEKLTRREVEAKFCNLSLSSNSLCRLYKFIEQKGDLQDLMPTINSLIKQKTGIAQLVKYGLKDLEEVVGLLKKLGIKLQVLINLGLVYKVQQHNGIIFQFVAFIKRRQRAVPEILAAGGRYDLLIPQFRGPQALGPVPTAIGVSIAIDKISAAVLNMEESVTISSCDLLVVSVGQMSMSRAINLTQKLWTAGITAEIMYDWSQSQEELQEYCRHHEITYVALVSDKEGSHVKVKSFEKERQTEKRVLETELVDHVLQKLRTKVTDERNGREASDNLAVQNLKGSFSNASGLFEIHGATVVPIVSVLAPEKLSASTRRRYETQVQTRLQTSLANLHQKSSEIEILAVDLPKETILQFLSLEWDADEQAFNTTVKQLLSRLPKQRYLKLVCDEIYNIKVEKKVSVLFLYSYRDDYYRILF

SMILES	pIC50 [1]	pIC50 [2]	pIC50 [3]	pIC50 [4]	pIC50 [6]	pIC50 [8]	pIC50 [9]	pIC50 [10]	pIC50 [11]	clearance [12]	pIC50 [13]	also measured
Cn1cc(-c2ccc3c(c2)CCN3C(=O)Cc2ccccn2)c2c(N)ncnc21	7.72											
Cn1cc(-c2ccc3c(c2F)CCN3C(=O)Cc2cccc(C(F)(F)F)n2)c2c(N)ncnc21	9.30	6.11	6.44	7.43	5.23	4.63	< 4.60	4.72	< 4.60	8.9 mL/min/kg	> 7.52	pIC50 [5]: 5.13; pIC50 [7]: 5.04
Cn1cc(-c2ccc3c(c2)CCN3C(=O)Cc2cccc(C(F)(F)F)c2)c2c(N)ncnc21					6.05		5.15	5.35	4.68	21.5 mL/min/kg		pIC50 [14]: 4.64
Cc1ccn(CC(=O)N2CCc3cc(-c4cn(C)c5ncnc(N)c45)ccc32)n1	7.24											
Cc1cc(C)n(CC(=O)N2CCc3cc(-c4cn(C)c5ncnc(N)c45)ccc32)n1	8.72									2.8 mL/min/kg	7.00	
Cc1cccc(CC(=O)N2CCc3c2ccc(-c2cn(C)c4ncnc(N)c24)c3F)n1	9.10	5.47	6.04	6.34	< 4.60	< 4.60	< 4.60	4.61	< 4.60	9.5 mL/min/kg	7.52	bioavailability [15]: 100%; bioavailability [16]: 100%; bioavailability [17]: 52%; AUC(0-inf) [18]: 6210 ng·h/mL; AUC(0-inf) [19]: 8020 ng·h/mL; AUC(0-inf) [20]: 13400 ng·h/mL; half-life [21]: 3.1 h; half-life [22]: 1.4 h; half-life [23]: 1.25 h; Vd [24]: 2.8 L/kg; Vd [25]: 0.6 L/kg; Vd [26]: 0.72 L/kg; clearance [27]: 15.5 mL/min/kg; clearance [28]: 10.5 mL/min/kg; AUC(0-inf) [29]: 3130 ng·h/mL; AUC(0-inf) [30]: 3920 ng·h/mL; AUC(0-inf) [31]: 3270 ng·h/mL
